Columns and labels:
[1] = pH of xylitol crystal prepared from xylitol solutions with different compositions; assay type: physicochemical; details: crystal prepared from xylitol solution of the stated composition
Description: In the production process of xylitol, there are two main factors can affect the pH of the product, one of which is ion exchange process. When xylitol solution passes through cation and anion exchange columns, H^+ and OH^− in resins are exchanged out, respectively. Due to the difference of exchange capacity between cation exchange column and anion exchange column, xylitol crystal products may have different pH. The other factor affecting the pH of xylitol product is the difference in composition of xylitol solution, which leads to a great difference in the pH of xylitol crystal.

[2] = cited from earlier work
[3] = pH of crude xylitol crystal after first crystallization; assay type: physicochemical; details: after first centrifuge and fluidization drying, before recrystallization
Description: Step 12, constant vacuum degree of the first crystallization kettle 7 was maintained at −0.095 MPa to further evaporate the xylitol concentrate solution. When temperature of the first crystallization kettle 7 dropped to 65° C., 0.001% xylitol crystal seeds (80-100 mesh) were added, and the system was maintained at constant temperature of 65° C. for evaporation and crystallization for 8 h. Finally, a crude xylitol crystal with purity of 99.5% and pH of 4.87 was obtained by centrifugal separation treatment of the first centrifuge 8 and fluidization drying treatment of the fluidization drying bed 9. At the same time, the primary centrifugal mother liquor C with purity of 90% obtained by the centrifugal separation treatment of the first centrifuge 8 was backset to the blending tank 1.
Step 22, constant vacuum degree of the first crystallization kettle 7 was maintained at −0.095 MPa to further evaporate the xylitol concentrate solution. When temperature of the first crystallization kettle 7 dropped to 64° C., 0.001% xylitol crystal seeds (100-120 mesh) were added, and the system was maintained at constant temperature of 64° C. for evaporation and crystallization for 12 h. Finally, crude xylitol crystal with purity of 99.6% and pH of 4.9 was obtained by centrifugal separation treatment of the first centrifuge 8 and fluidization drying treatment of the fluidization drying bed 9. At the same time, the primary centrifugal mother liquor C with purity of 89.5% obtained by the centrifugal separation treatment of the first centrifuge 8 was backset to the blending tank 1.
Step 32, constant vacuum degree of the first crystallization kettle 7 was maintained at −0.095 MPa to further evaporate the xylitol concentrate solution. When temperature of the first crystallization kettle 7 dropped to 66° C., 0.002% xylitol crystal seeds (60-80 mesh) were added, and the system was maintained at constant temperature of 66° C. for evaporation and crystallization for 10 h. […]

[4] = Acidity (pH) of xylitol crystal by the Chinese Pharmacopoeia method, 10 g crystal to 20 ml water; assay type: physicochemical; details: 10 g crystal to 20 ml pure water; for pH of xylitol after one month storage: crystal stored at room temperature for one month; for pH of xylitol after one week storage: crystal stored at room temperature for one week; for pH of xylitol: freshly prepared crystal
Description: The acidity of prepared xylitol crystal B was measured according to the method in the Chinese Pharmacopoeia. Xylitol solution was prepared with pure water in a proportion of 10 g crystal to 20 ml water. The pH of the xylitol solution in this Example was measured to be 6.06. After the obtained xylitol crystal B were stored at room temperature for one week, the pH of the xylitol solution was measured to be 6.03 using the same method. After the xylitol crystal was stored at room temperature for one month, the pH of the xylitol solution was measured to be 6.01 using the same method. The acidity of prepared xylitol crystal B was measured according to the method in the Chinese Pharmacopoeia. Xylitol solution was prepared with pure water in a proportion of 10 g crystal to 20 ml water. The pH of the xylitol solution in this Example was measured to be 6.12. After the obtained xylitol crystal B was stored at room temperature for one week, the pH of the xylitol solution was measured to be 6.08 using the same method. After the xylitol crystal was stored at room temperature for one month, the pH of the xylitol solution was measured to be 6.05 using the same method. The acidity of prepared xylitol crystal B was measured according to the method in the Chinese Pharmacopoeia. Xylitol solution was prepared with pure water in a proportion of 10 g crystal to 20 ml water. The pH of the xylitol solution in this Example was measured to be 6.09. After the obtained xylitol crystal B was stored at room temperature for one week, the pH of the xylitol solution was measured to be 6.07 using the same method. After the xylitol crystals were stored at room temperature for one month, the pH of the xylitol solution was measured to be 6.05 using the same method. The acidity of prepared xylitol crystal was measured according to the method in the Chinese Pharmacopoeia. Xylitol solution was prepared with pure water in a proportion of 10 g crystal to 20 ml water. The pH of the xylitol solution in this comparative example was measured to be 5.02. After the obtained xylitol crystals was stored at room temperature for one week, the pH of the xylitol solution was measured to be 4.85 using the same method. After the xylitol crystal was stored at room temperature for one month, the pH of the xylitol solution was measured to be 4.64 using the same method. The acidity of prepared xylitol crystal was measured according to the method in the Chinese Pharmacopoeia. Xylitol solution was prepared with pure water in a proportion of 10 g crystal to 20 ml water. The pH of the xylitol solution in this Contrast was measured to be 5.04. After the obtained xylitol crystal was stored at room temperature for one week, the pH of the xylitol solution was measured to be 4.81 using the same method. After the xylitol crystal was stored at room temperature for one month, the pH of the xylitol solution was measured to be 4.68 using the same method. The acidity of prepared xylitol crystal was measured according to the method in the Chinese Pharmacopoeia. Xylitol solution was prepared with pure water in a proportion of 10 g crystal to 20 ml water. The pH of the xylitol solution in this comparative example was measured to be 5.03. After the obtained xylitol crystal was stored at room temperature for one week, the pH of the xylitol solution was measured to be 4.90 using the same method. After the xylitol crystal was stored at room temperature for one month, the pH of the xylitol solution was measured to be 4.73 using the same method.

[5] = listed as Comparative Example 1
[6] = listed as Comparative Example 2
[7] = listed as Comparative Example 3

Row | Structure (SMILES) | pH of xylitol after one month storage [4] | pH of xylitol after one week storage [4] | pH of xylitol [4] | also measured
1 | OC[C@@H](O)[C@H](O)[C@@H](O)CO [100% xylitol, xylitol] |  |  |  | pH of xylitol crystal [1]: 6.02
2 | O=C[C@@H](O)[C@H](O)[C@H](O)CO [Arabinose] |  |  |  | Acidity coefficient (pKa) [2]: 12.46 ± 0.2
3 | OC[C@@H](O)[C@H](O)[C@@H](O)CO [Example 1 crude xylitol crystal, xylitol] |  |  |  | pH of crude xylitol crystal [3]: 4.87
4 | OC[C@@H](O)[C@H](O)[C@@H](O)CO [Example 1, xylitol] | 6.01 | 6.03 | 6.06 | 
5 | OC[C@@H](O)[C@H](O)[C@@H](O)CO [Example 2 crude xylitol crystal, xylitol] |  |  |  | pH of crude xylitol crystal [3]: 4.9
6 | OC[C@@H](O)[C@H](O)[C@@H](O)CO [Example 2, xylitol] | 6.05 | 6.08 | 6.12 | 
7 | OC[C@@H](O)[C@H](O)[C@@H](O)CO [Example 3 crude xylitol crystal, xylitol] |  |  |  | pH of crude xylitol crystal [3]: 4.99
8 | OC[C@@H](O)[C@H](O)[C@@H](O)CO [Example 3, xylitol] | 6.05 | 6.07 | 6.09 | 
9 | OC[C@@H](O)[C@H](O)[C@@H](O)CO [Xylitol] |  |  |  | Acidity coefficient (pKa) [2]: 13.24 ± 0.2
10 | O=C[C@H](O)[C@@H](O)[C@H](O)CO [Xylose] |  |  |  | Acidity coefficient (pKa) [2]: 12.14
11 | OC[C@@H](O)[C@H](O)[C@@H](O)CO [compound 1, xylitol] | 4.64 | 4.85 | 5.02 | pH of xylitol after one month storage [4, 5]: 4.64; pH of xylitol after one week storage [4, 5]: 4.85; pH of xylitol [4, 5]: 5.02
12 | OC[C@@H](O)[C@H](O)[C@@H](O)CO [compound 2, xylitol] | 4.68 | 4.81 | 5.04 | pH of xylitol after one month storage [4, 6]: 4.68; pH of xylitol after one week storage [4, 6]: 4.81; pH of xylitol [4, 6]: 5.04
13 | OC[C@@H](O)[C@H](O)[C@@H](O)CO [compound 3, xylitol] | 4.73 | 4.90 | 5.03 | pH of xylitol after one month storage [4, 7]: 4.73; pH of xylitol after one week storage [4, 7]: 4.90; pH of xylitol [4, 7]: 5.03
14 | O=C[C@H](O)[C@@H](O)[C@@H](O)[C@H](O)CO [galactose] |  |  |  | Acidity coefficient (pKa) [2]: 12.35

From patent publication US12187667B2, “Preparation systems and preparation methods for high-quality xylitol crystals” (ZHEJIANG HUAKANG PHARMACEUTICAL CO., LTD., priority 2022, dated 2025)
